In experiment [1] the target is T1, mCRY2-PHR (Mus musculus, UniProt Q9R194).
T1 sequence (Q9R194 1-512): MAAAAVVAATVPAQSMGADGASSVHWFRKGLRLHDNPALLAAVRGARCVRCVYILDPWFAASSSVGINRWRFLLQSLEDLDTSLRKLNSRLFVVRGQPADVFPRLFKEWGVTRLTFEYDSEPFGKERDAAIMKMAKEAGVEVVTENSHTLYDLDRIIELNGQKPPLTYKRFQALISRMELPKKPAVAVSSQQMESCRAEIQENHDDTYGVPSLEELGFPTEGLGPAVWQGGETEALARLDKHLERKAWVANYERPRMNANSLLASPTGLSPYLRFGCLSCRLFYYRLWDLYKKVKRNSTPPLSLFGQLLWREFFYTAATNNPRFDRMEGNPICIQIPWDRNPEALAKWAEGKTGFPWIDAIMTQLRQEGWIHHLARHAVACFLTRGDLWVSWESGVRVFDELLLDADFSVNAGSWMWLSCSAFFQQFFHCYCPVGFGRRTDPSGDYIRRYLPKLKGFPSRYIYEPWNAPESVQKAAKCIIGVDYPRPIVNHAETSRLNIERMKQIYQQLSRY
Kind of experiment: quenching of FAD fluorescence. In kind it is binding.

The target in experiment [2] is T2, GST-tagged mCRY2 (1-544) (mouse, UniProt Q9R194 1-544).
T2 sequence: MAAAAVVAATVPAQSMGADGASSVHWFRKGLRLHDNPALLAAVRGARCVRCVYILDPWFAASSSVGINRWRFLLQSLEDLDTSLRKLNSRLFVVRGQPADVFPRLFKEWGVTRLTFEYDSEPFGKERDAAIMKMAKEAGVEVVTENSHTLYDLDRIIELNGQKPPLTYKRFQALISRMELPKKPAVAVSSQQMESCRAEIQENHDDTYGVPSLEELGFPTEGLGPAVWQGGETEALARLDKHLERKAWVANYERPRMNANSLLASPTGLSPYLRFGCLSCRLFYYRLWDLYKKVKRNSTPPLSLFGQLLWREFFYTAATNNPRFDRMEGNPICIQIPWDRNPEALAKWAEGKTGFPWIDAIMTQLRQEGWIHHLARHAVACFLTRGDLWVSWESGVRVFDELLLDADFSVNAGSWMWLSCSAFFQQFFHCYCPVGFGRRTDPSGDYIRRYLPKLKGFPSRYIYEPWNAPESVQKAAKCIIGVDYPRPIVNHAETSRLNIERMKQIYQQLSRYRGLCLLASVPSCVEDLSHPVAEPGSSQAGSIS
Put plainly: pull-down.

On to `Cc1cc2nc3c(=O)[nH]c(=O)nc-3n(C[C@H](O)[C@H](O)[C@H](O)COP(=O)(O)OP(=O)(O)OC[C@H]3O[C@@H](n4cnc5c(N)ncnc54)[C@H](O)[C@@H]3O)c2cc1C` [FAD], for which, in experiment [1], the Kd (as a rule, the constant that tells how readily two partners part at equilibrium) was approximately 40 µM.

B1: Strep-tagged full-length Fbxl3 (natural protein)
chain: MKRGGRDSDRNSSEEGTAEKSKKLRTTNEHSQTCDWGNLLQDIILQVFKYLPLLDRAHASQVCRNWNQVFHMPDLWRCFEFELNQPATSYLKATHPELIKQIIKRHSNHLQYVSFKVDSSKESAEAACDILSQLVNCSLKTLGLISTARPSFMDLPKSHFISALTVVFVNSKSLSSLKIDDTPVDDPSLKVLVANNSDTLKLLKMSSCPHVSPAGILCVADQCHGLRELALNYHLLSDELLLALSSEKHVRLEHLRIDVVSENPGQTHFHTIQKSSWDAFIRHSPKVNLVMYFFLYEEEFDPFFRYEIPATHLYFGRSVSKDVLGRVGMTCPRLVELVVCANGLRPLDEELIRIAERCKNLSAIGLGECEVSCSAFVEFVKMCGGRLSQLSIMEEVLIPDQKYSLEQIHWEVSKHLGRVWFPDMMPTW
For B1, the binding result in experiment [2] is reported as “binds”.
